{
  "source": "patent US20200129513A1",
  "about": "“COMPOSITIONS AND METHODS FOR TREATING HEMATOLOGIC MALIGNANCIES” (UNIVERSITY OF ROCHESTER, priority 2018, published 2020)",
  "key": {"CLL patient cells [1]": {"system": "CLL patient cells", "assay": "CLL cell viability, Cell Titer-Blue Cell Viability Assay", "assay_type": "cell-based", "settings": "Homo sapiens, 48 hours culture, FIG. 1, read-out: IC50, reduction of CLL cell viability", "source_text": "The common off-target with the best binding was ERRB2 in the EGFR family of receptors. Afatinib (an irreversible inhibitor that covalently binds to the EGFR family of receptors (including ERBB2) active tyrosine kinase domain ATP-binding site, a similar mechanism to that of the BTK inhibitors) was chosen as an example EGFR family inhibitor to test this hypothesis. […] Media is RPMI1640 (Cellgro, Corning) supplemented with penicillin, streptomycin, L-glutamine (Gibco, ThermoFisher Scientific, Waltham, Mass.), and 10% heat-inactivated fetal bovine serum (Sigma-Aldrich, St. Louis, Mo.). After cell culture, viability was measured by Cell Titer-Blue Cell Viability Assay (Promega, Madison, Wis.) according to manufacturer's directions. Non-viable cells produce less fluorescence. Measurements were done in triplicate for each concentration. Fluorescence was measured on a BioTek Synergy2 96-well plate reader (BioTek Instruments, Winooski, Vt.). Data was analysed using Prism6 software (GraphPad Software, La Jolla, Calif.) and dose curve was generated using 4PL fit. Afatinib reduces CLL cell viability in a dose dependent manner (IC50 0.4 μM) as shown in FIG. 1 (all data points shown)."}, "CA46 cell line [2]": {"system": "CA46 cell line", "assay": "NHL p53 mutated cell line viability, Cell Titer-Glo 2.0 Assay", "assay_type": "cell-based", "settings": "Homo sapiens; CA46 (BL-derived, p.R248Q p53), 54 hours culture, Cell Titer-Glo 2.0, FIG. 9; read-out: IC50, reduction of cell viability of p53 mutated NHL cell line", "protocol": "Luminescence was measured on a BioTek Synergy2 96-well plate reader (BioTek Instruments). Data was analysed using Prism6 software (GraphPad Software) and dose curve was generated using 4PL fit."}, "CLL patient cells [3]": {"system": "CLL patient cells", "assay": "CLL cell death, CellTox Green Cytotoxicity Assay", "assay_type": "cell-based", "settings": "Homo sapiens, 48 hours culture, FIG. 3, read-out: IC50, induction of CLL cell death", "source_text": "The common off-target with the best binding was ERRB2 in the EGFR family of receptors. Afatinib (an irreversible inhibitor that covalently binds to the EGFR family of receptors (including ERBB2) active tyrosine kinase domain ATP-binding site, a similar mechanism to that of the BTK inhibitors) was chosen as an example EGFR family inhibitor to test this hypothesis. […] Media is RPMI1640 (Cellgro, Corning) supplemented with penicillin, streptomycin, L-glutamine (Gibco, ThermoFisher Scientific, Waltham, Mass.), and 10% heat-inactivated fetal bovine serum (Sigma-Aldrich, St. Louis, Mo.). After cell culture, viability was measured by Cell Titer-Blue Cell Viability Assay (Promega, Madison, Wis.) according to manufacturer's directions. Non-viable cells produce less fluorescence. Measurements were done in triplicate for each concentration. Fluorescence was measured on a BioTek Synergy2 96-well plate reader (BioTek Instruments, Winooski, Vt.). Data was analysed using Prism6 software (GraphPad Software, La Jolla, Calif.) and dose curve was generated using 4PL fit. […] To test that an EGFR family inhibitor not only reduces CLL cell viability, but also induces cell death in vitro, cytotoxicity was measured by CellTox Green Cytotoxicity Assay (Promega). Dead cells produce more fluorescence in this assay. […] Fluorescence was measured on a BioTek Synergy2 96-well plate reader (BioTek Instruments). […]"}, "AML patient cells": {"system": "AML patient cells", "assay": "AML cell death, CellTox Green Cytotoxicity Assay", "assay_type": "cell-based", "settings": "Homo sapiens, one AML patient sample, 30 hours culture, FIG. 7, read-out: IC50, induction of AML cell death"}, "CA46 cell line [4]": {"system": "CA46 cell line", "assay": "NHL p53 mutated cell line death, CellTox Green Cytotoxicity Assay", "assay_type": "cell-based", "settings": "Homo sapiens, CA46, 54 hours culture, FIG. 10, read-out: IC50, induction of cell death of p53 mutated NHL cell line"}, "CLL patient cells [5]": {"system": "CLL patient cells", "assay": "CLL cell viability, Cell Titer-Glo 2.0 Assay", "assay_type": "cell-based, human", "settings": "for IC50: Homo sapiens, CLL patient cells, 48 hours culture", "protocol": "(§1) After cell culture, viability was assayed according to manufacturer's directions. Luminescence was measured on a BioTek Synergy2 96-well plate reader (BioTek Instruments). Data was analysed using Prism6 software (GraphPad Software) and dose curve was generated using 4PL fit.\nas §1, with “Cell viability was measured by Cell Titer-Glo 2.0 Assay (Promega) in triplicate for each concentration. […] After” for “After”"}, "[6]": {"system": "primary AML suspension cells", "assay": "AML cell viability, Cell Titer-Glo 2.0 Assay", "assay_type": "cell-based, human", "settings": "two different AML patient samples, 30 hours culture, Cell Titer-Glo 2.0, FIG. 6, read-out: IC50, reduction of AML cell viability", "protocol": "To test this, primary AML suspension cells were treated in vitro with afatinib. Cell viability was measured by Cell Titer-Glo 2.0 Assay (Promega) in triplicate for each concentration. Two different AML patient cells (1×10^5 cells/100 μL media) were cultured for 30 hours in clear 96-well flat bottom tissue culture plates (Costar, Corning) with serial drug dilutions (100 μM afatinib (LC Laboratories) serially diluted 3-fold ending at ˜0.01 μM). Media is RPMI1640 (Cellgro, Corning) supplemented with penicillin, streptomycin, L-glutamine (Gibco, ThermoFisher Scientific), and 10% heat-inactivated fetal bovine serum (Sigma-Aldrich). After cell culture, viability was assayed according to manufacturer's directions. Luminescence was measured on a BioTek Synergy2 96-well plate reader (BioTek Instruments). Data was analysed using Prism6 software (GraphPad Software) and dose curve was generated using 4PL fit."}},
  "note": "Read-outs that look alike come from different tables or passages of the source.",
  "data": [
    {"smiles": "CN(C)C/C=C/C(=O)Nc1cc2c(Nc3ccc(F)c(Cl)c3)ncnc2cc1O[C@H]1CCOC1", "note": "[Afatinib]", "values": [
      {"measurement": "IC50", "setting": "CLL patient cells [1]", "value": 0.4, "unit": "µM"},
      {"measurement": "IC50", "setting": "CA46 cell line [2]", "value": 3, "unit": "µM"},
      {"measurement": "IC50", "setting": "CLL patient cells [3]", "value": 12, "unit": "µM"},
      {"measurement": "IC50", "setting": "AML patient cells", "value": 19, "unit": "µM"},
      {"measurement": "IC50", "setting": "CA46 cell line [4]", "value": 22, "unit": "µM"},
      {"measurement": "IC50", "setting": "CLL patient cells [5]; read-out: IC50, reduction of CLL cell viability (afatinib vs ibrutinib comparison), Cell Titer-Glo 2.0, FIG. 4", "value": 0.5, "unit": "µM"},
      {"measurement": "IC50", "setting": "CLL patient cells [5]; Cell Titer-Glo 2.0, FIG. 2, read-out: IC50, reduction of CLL cell viability", "value": 0.3, "unit": "µM"},
      {"measurement": "fold lower concentration than ibrutinib for reduction of CLL cell viability", "setting": "CLL patient cells [5]; ratio of IC50 values, FIG. 4", "value": 20, "unit": "fold"},
      {"measurement": "IC50", "setting": "[6]; Homo sapiens, 30 h", "value": 2.1, "unit": "µM"},
      {"measurement": "IC50", "setting": "[6]", "value": 2.6, "unit": "µM"}
    ]}
  ]
}
